Measurements taken from patent EP0341019A2, “Polyether antibiotic” (priority 1988, dated 1989).
Values after ≈ are worked out from the molar mass of the structure shown.

Tests used:
[1] = tested on: Staphylococcus aureus X400; format: cell-based; conditions: X400, 24 h
[2] = tested on: Herpes simplex viruses (HSV I); experiment: antiviral tissue-culture test; format: cell-based, Herpes simplex virus
[3] = tested on: Propionibacterium acnes 79; format: cell-based; conditions: Cutibacterium acnes, 79, 24 h
[4] = tested on: Fusobacterium symbiosum 1470; format: cell-based; conditions: Fusobacterium, 1470, 24 h
[5] = tested on: Bacteroides fragilis 1936B; format: cell-based; conditions: 24 h
[6] = tested on: Peptococcus prevoti 1281; format: cell-based; conditions: 24 h
[7] = tested on: Bacteroides corrodens 1874; format: cell-based; conditions: Eikenella corrodens, 1874, 24 h
[8] = tested on: E. acervulina Strain FS-316; experiment: anticoccidial feed test in infected chickens, ionophore-resistant strain; format: in vivo
[9] = tested on: Eimeria maxima Strain FS-410; experiment: as above; format: in vivo
[10] = tested on: Fusobacterium necrophorum 6054A; format: cell-based; conditions: 24 h
[11] = tested on: Bacteroides melaninogenicus 1856/28; format: cell-based; conditions: Prevotella intermedia, 1856/28, 24 h
[12] = effect on growth of uninfected chicks; format: in vivo; conditions: Table XXI, Compound ppm r3-r7: 0,8,10,12,14
Text: Newly hatched chickens are raised in a coccidial-free environment for a seven-day period. On the morning of the eighth day, the chickens are weighed and assigned to treatment groups.
Each group of chicks (usually 4 or 5 chicks per group) is housed in a battery cage during the experiment. A constant lighting schedule and ad libitum access to feed (each experiment contains non-medicated and drug-medicated treatments) and water are provided for the chicks in each battery. Two days after the experiment is initiated, chicks that are designated to be infected are crop-intubated with a pure suspension of coccidial oocysts. The oocyst dosage used in each test is designed to produce clinical coccidiosis in infected nonmedicated animals.
After an additional seven-day growth period, the experiment is terminated. Each group of chicks is weighed, and the amount of feed consumed by each group is determined. From these measurements, final bird weights and efficiency of feed utilization are calculated. All birds are then sacrificed, and the intestine. and cecum are examined for the presence of coccidial-induced lesions.

[13] = tested on: Eubacterium aerofaciens 1235; format: cell-based; conditions: Collinsella aerofaciens, 1235, 24 h
[14] = tested on: Staphylococcus epidermidis 222; format: cell-based; conditions: Staphylococcus epidermidis, 222, 24 h
[15] = tested on: Bacteroides fragilis 1877; format: cell-based; conditions: Bacteroides fragilis, 1877, 24 h
[16] = tested on: Escherichia coli N10; format: cell-based; conditions: N10, 24 h
[17] = tested on: Friend leukemia virus; experiment: antiviral tissue-culture test; format: cell-based
[18] = tested on: southern armyworm; experiment: insecticide test
Text: (§1) The A82810 compounds are also useful as insecticides. For example, A82810 is active against southern armyworm, spider mite and blowfly larvae at levels as low as 100 ppm and against adult stablefly at levels as low as 50 ppm.

[19] = tested on: adult stablefly; experiment: insecticide test
Text: as §1

[20] = tested on: blowfly larvae; experiment: insecticide test
Text: as §1

[21] = tested on: spider mite; experiment: insecticide test
Text: as §1

[22] = tested on: Streptococcus pneumoniae Park 1; format: cell-based; conditions: 24 h
[23] = tested on: Staphylococcus aureus X1.1; format: cell-based; conditions: X1.1, 24 h
[24] = tested on: Eimeria acervulina Strain FS-273 and E. tenella Strain FS-456; experiment: anticoccidial feed test in infected chickens, ionophore-resistant strains; format: in vivo
[25] = tested on: Escherichia coli EC14; format: cell-based; conditions: EC14, 24 h
[26] = physchem
[27] = tested on: Pseudomonas aeruginosa X528; format: cell-based; conditions: X528, 24 h
[28] = tested on: Bacteroides thetaiotaomicron 1438; format: cell-based; conditions: 24 h
[29] = tested on: Streptococcus pyogenes C203; format: cell-based; conditions: C203, 24 h
[30] = tested on: Enterobacter aerogenes EB17; format: cell-based; conditions: Klebsiella aerogenes, EB17, 24 h

Compound: CC[C@@H](O)[C@]1(C)C[C@H](C)[C@@](O)([C@H]2C[C@H](C)[C@H]([C@]3(C)C[C@@H](O[C@H]4CC[C@H](OC)[C@@H](C)O4)[C@H]([C@]4(C)CC[C@@]5(O[C@H]([C@@H](C)[C@@H](OC)[C@H](C)C(=O)O)[C@H](C)[C@@H](OC)[C@H]5C)O4)O3)O2)O1 [Example A82810]
- MIC [1]: 1 µg/mL (≈ 1.19 µM)
- active at levels as low as [2]: 1.56 µg/mL
- MIC [3]: 2 µg/mL (≈ 2.37 µM)
- MIC [4]: 0.5 µg/mL (≈ 0.593 µM)
- MIC [5]: 8 µg/mL (≈ 9.49 µM)
- MIC [6]: ≤ 0.25 µg/mL
- MIC [7]: 8 µg/mL (≈ 9.49 µM)
- AVERAGE INTESTINAL LESION SCORES ([8]; 0.5 ppm): 7.3
- WEIGHT GAIN, PERCENT OF CONTROL ([8]; 0.5 ppm): 72% OF CONTROL
- AVERAGE INTESTINAL LESION SCORES ([8]; 1 ppm): 7.8
- WEIGHT GAIN, PERCENT OF CONTROL ([8]; 1 ppm): 73% OF CONTROL
- AVERAGE INTESTINAL LESION SCORES ([8]; 1.5 ppm): 7.9
- WEIGHT GAIN, PERCENT OF CONTROL ([8]; 1.5 ppm): 73% OF CONTROL
- AVERAGE INTESTINAL LESION SCORES ([8]; 2 ppm): 8.8
- WEIGHT GAIN, PERCENT OF CONTROL ([8]; 2 ppm): 76% OF CONTROL
- AVERAGE INTESTINAL LESION SCORES ([9]; 1.25 ppm): 4.0
- WEIGHT GAIN, PERCENT OF CONTROL ([9]; 1.25 ppm): 93% OF CONTROL
- AVERAGE INTESTINAL LESION SCORES ([9]; 1.5 ppm): 3.3
- INTESTINAL LESION SCORE ([9]; 1.5 ppm): 4.0
- AVERAGE INTESTINAL LESION SCORES ([9]; 1.75 ppm): 3.8
- WEIGHT GAIN, PERCENT OF CONTROL ([9]; 1.75 ppm): 91% OF CONTROL
- INTESTINAL LESION SCORE ([9]; 2 ppm): 4.0
- LESION SCORE ([9]; 2 ppm): 2.3
- PERCENT REDUCTION IN OOCYST PRODUCTION ([9]; 2 ppm): 18%
- AVERAGE INTESTINAL LESION SCORES ([9]; 2.5 ppm): 3.8
- WEIGHT GAIN, PERCENT OF CONTROL ([9]; 2.5 ppm): 90% OF CONTROL
- AVERAGE INTESTINAL LESION SCORES ([9]; 3 ppm): 3.1
- WEIGHT GAIN, PERCENT OF CONTROL ([9]; 3 ppm): 88% OF CONTROL
- AVERAGE INTESTINAL LESION SCORES ([9]; 3.5 ppm): 3.5
- WEIGHT GAIN, PERCENT OF CONTROL ([9]; 3.5 ppm): 88% OF CONTROL
- AVERAGE INTESTINAL LESION SCORES ([9]; 5 ppm): 4.0
- WEIGHT GAIN, PERCENT OF CONTROL ([9]; 5 ppm): 74% OF CONTROL
- AVERAGE INTESTINAL LESION SCORES ([9]; 6 ppm): 4.0
- LESION SCORE ([9]; 6 ppm): 2.7
- PERCENT REDUCTION IN OOCYST PRODUCTION ([9]; 6 ppm): 18%
- LESION SCORE ([9]; 10 ppm): 2.4
- PERCENT REDUCTION IN OOCYST PRODUCTION ([9]; 10 ppm): 36%
- WEIGHT GAIN, PERCENT OF CONTROL ([9]; 10 ppm): 88% OF CONTROL
- MIC [10]: ≤ 0.25 µg/mL
- MIC [11]: 8 µg/mL (≈ 9.49 µM)
- WEIGHT GAIN, PERCENT OF CONTROL ([12]; A82810 1.25 ppm): 98% OF CONTROL
- WEIGHT GAIN, PERCENT OF CONTROL ([12]; A82810 1.5 ppm): 101% OF CONTROL
- WEIGHT GAIN, PERCENT OF CONTROL ([12]; A82810 1.75 ppm): 105% OF CONTROL
- WEIGHT GAIN, PERCENT OF CONTROL ([12]; A82810 2.0 ppm): 99% OF CONTROL
- MIC [13]: ≤ 0.25 µg/mL
- MIC [14]: 0.5 µg/mL (≈ 0.593 µM)
- MIC [15]: 8 µg/mL (≈ 9.49 µM)
- MIC [16]: 1 µg/mL (≈ 1.19 µM)
- active at levels as low as [17]: 0.04 µg/mL
- active at levels as low as [18]: 100 ppm
- active at levels as low as [19]: 50 ppm
- active at levels as low as [20]: 100 ppm
- active at levels as low as [21]: 100 ppm
- MIC [22]: 1 µg/mL (≈ 1.19 µM)
- MIC [23]: 1 µg/mL (≈ 1.19 µM)
- LESION SCORE ([24]; 2 ppm): 7.2
- PERCENT REDUCTION IN OOCYST PRODUCTION ([24]; 2 ppm): 22%
- WEIGHT GAIN, PERCENT OF CONTROL ([24]; 2 ppm): 68% OF CONTROL
- LESION SCORE ([24]; 6 ppm): 3.7
- PERCENT REDUCTION IN OOCYST PRODUCTION ([24]; 6 ppm): 65%
- WEIGHT GAIN, PERCENT OF CONTROL ([24]; 6 ppm): 89% OF CONTROL
- LESION SCORE ([24]; 10 ppm): 2.0
- PERCENT REDUCTION IN OOCYST PRODUCTION ([24]; 10 ppm): 83%
- WEIGHT GAIN, PERCENT OF CONTROL ([24]; 10 ppm): 86% OF CONTROL
- MIC [25]: 8 µg/mL (≈ 9.49 µM)
- pKa [26]: 6.6
- MIC [27]: 2 µg/mL (≈ 2.37 µM)
- MIC [28]: 8 µg/mL (≈ 9.49 µM)
- MIC [29]: 1 µg/mL (≈ 1.19 µM)
- MIC [30]: 8 µg/mL (≈ 9.49 µM)
